Read-outs that look alike come from different tables or passages of the source. Residues, ends and D or L forms follow the SMILES beside them. No end group written: not given here. *: point of attachment. Paclitaxel(2'-O-succinyl) = CC(=O)O[C@H]1C(=O)[C@@]2(C)[C@H]([C@H](OC(=O)c3ccccc3)[C@]3(O)C[C@H](OC(=O)[C@H](OC(=O)CCC(=O)*)[C@@H](NC(=O)c4ccccc4)c4ccccc4)C(C)=C1C3(C)C)[C@]1(OC(C)=O)CO[C@@H]1C[C@@H]2O
Assays:
[1] = system: A549T tumor; format: in vivo, BALB/c nude mice; conditions: 1000 μM
Text: (§1) The protocol to evaluate the in vivo antitumor efficacy of the PTX-CPP conjugates was approved by the ethics committee of Fudan University. Four-week-old female BALB/c nude mice were purchased and housed in the Animal Care Facilities in the School of Pharmacy, Fudan University. BALB/c mice bearing subcutaneous tumors were used as an animal model for the evaluation of the anticancer activities of PTX-LMWP and PTX-TAT. The subcutaneous tumor xenograft model was established by inoculating 2 × 10^6 A549 or A549T cells (in 100 μL of cell culture medium) into the subcutaneous tissue of the armpit of the right anterior limb (Gu et al., [2014]). Tumor size was measured with Vernier calipers for the largest (length) and smallest (width) superficial visible diameters of the protruding tumor mass through the skin. Tumor volumes were calculated according to the following formula: volume = 0.52 × W^2×L, where W and L represent the width and the length, respectively (Lee et al., [2011]). The drugs were administered 2 weeks after tumor implantation, when the size of the tumors reached approximately 100–150 mm^3. […] Each experimental group contained six mice. The mice were treated (100 μL volume) three times over 8 d via peritumoral injection. Tumor volumes were measured at 2-d intervals. At the end of the experiment, the mice were sacrificed, and necropsies were performed. The tumors were removed, weighed and fixed with formalin.

[2] = system: A549 tumor; format: in vivo, BALB/c nude mice; conditions: A549 tumor-bearing nude mice, 1000 μM, 100 μL, peritumoral injection three times over 8 d; for decrease of tumor volume compared with PTX: from 22 to 30 d; for decrease of tumor volume compared with PTX / tumor inhibition rate: six mice per group; for tumor inhibition rate: tumors dissected and weighed after 24 or 30 d
Text: as §1

[3] = system: A549 cells; assay: Cellular uptake assay (intracellular drug accumulation); format: cell-based; conditions: 20 μM, incubation 15 min to 4 h, UPLC
Procedure: The cellular uptake experiment was implemented basing on the protocol designed by Meng with some modifications (Meng et al., [2011]). Briefly, A549 and A549T cells were cultivated in chambered 24-well plates with 5% CO2 at 37 °C for 48 h. Then, the adherent cells were washed twice with PBS. Each of the three drugs was diluted in cell medium at concentrations of 10 μM and 20 μM and added to the chambers. The cells were incubated for 2 h and washed four times with PBS after incubation. After that, the cells were scraped from the wells and quantitatively transferred to Eppendorf centrifuge tubes. The resulting cell/saline suspensions were sonicated for 20 cycles of 2 s each with 2 s of rest between each cycle using a probe sonicator. The lysed cell solution was centrifuged at 7000 g for 30 min at 4 °C. Then, 100 μL of the supernatant was withdrawn carefully and tested with UPLC (BEH C18, 1.7 μm, 2.1 × 50 mm). The flow rate was 0.3 mL/min, and the mobile phase consisted of 55% solvent A (PBS, pH = 5) and 45% solvent B (acetonitrile). To further test the change in cellular uptake against incubation time, the drugs (20 μM) were added to the cells, and the cells were then incubated for different times, ranging from 15 min to 4 h. The other steps of the experiment were performed as described above.

[4] = system: A549T cells; format: cell-based; conditions: 5 μM, 48 h, triplicate
Procedure: (§2) After that, the cells were harvested by trypsinization, washed in PBS twice, and fixed in 70% cold ethanol for 24 h at 4 °C. The fixed cells were washed in cold PBS and then resuspended in 0.5 mL of PBS containing 50 μg/mL PI, 0.1% Triton-X-100, 0.1% sodium citrate, and 100 μg/mL RNase. After incubation at 4 °C in the dark for 30 min, the fluorescence-activated cells were sorted. The cellular DNA content was analyzed by flow cytometry (Becton Dickinson, Franklin Lakes, NJ). Each analysis contained at least 10 000 cells. […] The percentages of cells in different cell cycle phases were then recorded. Each experiment was performed in triplicate, and the results were expressed as the mean ± SD.

[5] = system: A549 cells; assay: Cytotoxicity study, MTT colorimetric assay; conditions: for IC50 value as % of the IC50 of PTX / cell viability: 24 h; for IC50 value as % of the IC50 of PTX: GraphPad Prism, p < 0.01 vs PTX
Procedure: The inhibitory activities of the drug samples on cell growth were evaluated using a 3-(4,5-dimethylthiazol-2-yl)-2,5-diphenyltetrazolium bromide (MTT) colorimetric assay. A549 and A549T cells were harvested by trypsinization and resuspended at a concentration of 2 × 10^4 cells/mL in fresh culture medium. Then, the cells were seeded at a density of 5000 cells per well in 96-well plates. […] The concentration of the drugs ranged from 0.1 μM to 100 μM. After 24 h of incubation, the drug-containing media were abandoned, and 20 μL of MTT (5 mg/mL) solution was added to each well. The plate was incubated for an additional 4 h, and then, […] of DMSO was added to each well to dissolve any formed purple formazan crystals. The plates were vigorously shaken before measuring the relative color intensity. The absorbance at 570 nm of each well was measured with a plate reader.

[6] = system: A549T cells; assay: Cell apoptosis detection, annexin V-FITC/PI flow cytometry; format: cell-based; conditions: 10 μM, 48 h, triplicate
Procedure: (§3) Cell apoptosis was determined by an annexin V-FITC/PI assay. The externalization of phosphatidylserine, a result of early stage apoptosis, was detected by FITC-annexin V protein staining, and the membrane damage due to late-stage apoptosis was detected by the binding of PI to nuclear DNA. Briefly, 2 × 10^5 A549 and A549T cells were plated in 6-well plates and incubated for 24 h. After exposure to the different drugs at a concentration of 10 μM for 48 h, the cells were harvested by trypsinization, washed in PBS twice and incubated in the dark for 10 min at room temperature in 500 μL of binding buffer containing annexin V-FITC (1 μg/mL) and PI (1 μg/mL). The cells were immediately analyzed by flow cytometry (Becton Dickinson, Franklin Lakes, NJ). The fluorescence intensity of annexin V-FITC was measured at an excitation/emission wavelength of 488/530 nm and that of PI was measured at an excitation/emission wavelength of 488/617 nm. Approximately 10 000 cells were analyzed in each of the samples. Each assay was repeated in triplicate.

[7] = system: A549 cells; assay: as above; format: cell-based; conditions: 10 μM, 48 h, triplicate
Procedure: as §3

[8] = system: A549T cells; assay: Cytotoxicity study, MTT colorimetric assay; format: cell-based; conditions: for IC50 value as % of the IC50 of PTX: GraphPad Prism, p < 0.01 vs PTX
Procedure: The inhibitory activities of the drug samples on cell growth were evaluated using a 3-(4,5-dimethylthiazol-2-yl)-2,5-diphenyltetrazolium bromide (MTT) colorimetric assay. A549 and A549T cells were harvested by trypsinization and resuspended at a concentration of 2 × 10^4 cells/mL in fresh culture medium. Then, the cells were seeded at a density of 5000 cells per well in 96-well plates. […] The concentration of the drugs ranged from 0.1 μM to 100 μM. After 24 h of incubation, the drug-containing media were abandoned, and 20 μL of MTT (5 mg/mL) solution was added to each well. The plate was incubated for an additional 4 h, and then, 200 mL of DMSO was added to each well to dissolve any formed purple formazan crystals. The plates were vigorously shaken before measuring the relative color intensity. The absorbance at 570 nm of each well was measured with a plate reader.

[9] = system: A549T cells; assay: Mitochondrial membrane potential (Δψm) determination, JC-1 flow cytometry; format: cell-based; conditions: 10 μM, 48 h, triplicate
Procedure: Changes in the mitochondrial membrane potential (Δψm) were detected using JC-1 and analyzed with flow cytometry. Briefly, A549 and A549T cells were seeded at a density of 1 × 10^5 cells/mL in 6-well plates and exposed to the drugs (10 μM) for 48 h. The control experiments were performed by adding only culture medium. Then, the cells were harvested by trypsinization, washed in PBS twice, incubated with JC-1 ([…]) at 37 °C for 10 min in the dark, and finally analyzed by flow cytometry (Becton Dickinson, Franklin Lakes, NJ). Each assay was repeated in triplicate. JC-1 accumulates in mitochondria that have a high membrane potential and then dimerizes due to the high local concentrations achieved. Dimerized JC-1 emits red fluorescence, while monomeric JC-1 emits green fluorescence. The results are expressed as a ratio of red to green fluorescence.

[10] = system: A549 cells; assay: Cell-cycle analysis, PI flow cytometry; format: cell-based; conditions: 5 μM, 48 h, triplicate
Procedure: as §2

[11] = A549T tumor-bearing nude mice, 100 μL, peritumoral injection three times over 8 d

Row | Compound | tumor growth (tumor volume) compared with the control [1, 11] | tumor inhibition rate ([1]; mouse, in vivo) [%] | decrease of tumor volume compared with PTX [2] | tumor inhibition rate [2] [%] | effect on cell-cycle distribution [4] | IC50 value as % of the IC50 of PTX ([5]; A549 cells, MTT) [%] | percentage of early apoptotic cells (PI−/annexin V+) [6] [%] | percentage of late apoptotic cells (PI+/annexin V+) [6] [%] | percentage of late apoptotic cells (PI+/annexin V+) [7] [%] | IC50 value as % of the IC50 of PTX ([8]; A549T cells, MTT, 24 h) [%] | other results
1 | CC(=O)O[C@H]1C(=O)[C@@]2(C)[C@H]([C@H](OC(=O)c3ccccc3)[C@]3(O)C[C@H](OC(=O)[C@H](OC(=O)CCC(=O)N[C@H](C(=O)N[C@@H](CO)C(=O)N[C@@H](CCCNC(=N)N)C(=O)N[C@@H](CCCNC(=N)N)C(=O)N[C@@H](CCCNC(=N)N)C(=O)N[C@@H](CCCNC(=N)N)C(=O)N[C@@H](CCCNC(=N)N)C(=O)N[C@@H](CCCNC(=N)N)C(=O)NCC(=O)NCC(=O)N[C@@H](CCCNC(=N)N)C(=O)N[C@@H](CCCNC(=N)N)C(=O)N[C@@H](CCCNC(=N)N)C(=O)N[C@@H](CCCNC(=N)N)C(=O)O)C(C)C)[C@@H](NC(=O)c4ccccc4)c4ccccc4)C(C)=C1C3(C)C)[C@]1(OC(C)=O)CO[C@@H]1C[C@@H]2O [PTX-LMWP] ({Paclitaxel(2'-O-succinyl)}-VSRRRRRRGGRRRR-OH; N-terminus and C-terminus assumed) | considerable antitumor effect | 43.13 | 1.45–1.80 fold | 62.92 | limited generation of tetraploids but a large number of cells in diploid-S phase cell-cycle arrest | 33.5 | 38.10 | 55.75 | 84.03 | 21.5 | cellular uptake against incubation time [3]: stronger than that of PTX-TAT; IC50 value compared with PTX-TAT ([8]; A549T cells, MTT, p < 0.01): remarkably lower than that of PTX-TAT; effect on mitochondrial membrane potential (Δψm), ratio of red to green JC-1 fluorescence [9]: significant breakdown of the Δψm compared with the PTX-TAT treatment
2 | CC(=O)O[C@H]1C(=O)[C@@]2(C)[C@H]([C@H](OC(=O)c3ccccc3)[C@]3(O)C[C@H](OC(=O)[C@H](O)[C@@H](NC(=O)c4ccccc4)c4ccccc4)C(C)=C1C3(C)C)[C@]1(OC(C)=O)CO[C@@H]1C[C@@H]2O [PTX, Paclitaxel, reference compound] | no significant difference in the tumor volumes between the control and PTX groups |  |  | 31.06 | a large number of A549T cells were induced into tetraploids |  |  |  | 13.03 |  | effect on cell-cycle distribution [10]: substantially increased the percentages of cells in G2/M phase cell-cycle arrest; tumor inhibition rate ([1]; A549T tumor-bearing nude mice, 100 μL, peritumoral injection three times over 8 d, tumors dissected and weighed after 24 or 30 d, six mice per group): 11.0%; tumor growth (tumor volume) compared with the control [2]: significant antitumor effect; cell viability ([5]; A549 cells, MTT, concentration below 1 nM): higher than 80%; cell viability ([5]; A549 cells, MTT, concentrations from 100 nM to 100 000 nM): 40%; effect on cell viability ([8]; A549T cells, MTT, 24 h, concentrations below 1000 nM): no effect on cell viability
3 | CC(=O)O[C@H]1C(=O)[C@@]2(C)[C@H]([C@H](OC(=O)c3ccccc3)[C@]3(O)C[C@H](OC(=O)[C@H](OC(=O)CCC(=O)NCCN4C(=O)CC(SC[C@H](N)C(=O)NCC(=O)NCC(=O)NCC(=O)N[C@@H](Cc5ccc(O)cc5)C(=O)NCC(=O)N[C@@H](CCCNC(=N)N)C(=O)N[C@@H](CCCCN)C(=O)N[C@@H](CCCCN)C(=O)N[C@@H](CCCNC(=N)N)C(=O)N[C@@H](CCCNC(=N)N)C(=O)N[C@@H](CCC(N)=O)C(=O)N[C@@H](CCCNC(=N)N)C(=O)N[C@@H](CCCNC(=N)N)C(=O)N[C@@H](CCCNC(=N)N)C(=O)O)C4=O)[C@@H](NC(=O)c4ccccc4)c4ccccc4)C(C)=C1C3(C)C)[C@]1(OC(C)=O)CO[C@@H]1C[C@@H]2O (stereo partly shown) [PTX-TAT] | considerable antitumor effect | 42.47 | 1.51–1.77 fold | 63.32 | higher tetraploid-G2/M phase arrest than those incubated with PTX | 47.2 | 23.15 | 54.20 | 72.57 | 39.5 | 
4 | VSRRRRRRGGRRRR [LMWP, reference compound] |  |  |  |  |  |  |  |  |  |  | toxicity of the CPPs alone (cell viability) [5]: No harmful effect; toxicity of the CPPs alone (cell viability) [8]: No harmful effect
5 | N=C(N)NCCC[C@H](NC(=O)[C@H](CCCNC(=N)N)NC(=O)[C@H](CCCNC(=N)N)NC(=O)[C@H](CCC(N)=O)NC(=O)[C@H](CCCNC(=N)N)NC(=O)[C@H](CCCNC(=N)N)NC(=O)[C@H](CCCCN)NC(=O)[C@H](CCCCN)NC(=O)[C@H](CCCNC(=N)N)NC(=O)CNC(=O)[C@H](Cc1ccc(O)cc1)NC(=O)CNC(=O)CNC(=O)CNC(=O)[C@@H](N)CS)C(=O)O [TAT, reference compound] |  |  |  |  |  |  |  |  |  |  | toxicity of the CPPs alone (cell viability) ([5]; A549 cells, MTT, same molar concentrations as PTX): No harmful effect; toxicity of the CPPs alone (cell viability) ([8]; A549T cells, MTT, same molar concentrations as PTX): No harmful effect

From publication PMC8253140 (Drug Delivery, 2017)
